Tests used:
IDH1^R132H [1] = target: T1, IDH1^R132H (Homo sapiens, UniProt O75874, R132H); assay: Enzyme activity inhibition assay (fluorescence-based), IDH1 R132H; type: biochemical
Description: The inhibitory ability of the compounds on the enzyme activities of IDH1^R132H and IDH2^R140Qwas detected and expressed as the half inhibitory concentration (IC50) value. AG-881 was used as a positive control compound. In this experiment, compounds were screened on enzymes IDH1^R132H and IDH2^R140Q using a fluorescence-based method (initial concentration: 10000 nM, 3-fold dilution, 10 concentrations, and single-well detection). • (1) Preparation of 1×assay buffer. • (2) Preparation of compound concentration gradient: the compounds to be tested were assayed at an initial concentration of 10000 nM, with 3-fold dilution and 10 concentrations, and diluted into 200-fold the final concentration in 100% DMSO solution in a 384-well plate. • (3) 250 nL of DMSO and 250 nL of diluted compounds were transferred to a reaction plate with Echo 550. • (4) IDH2^R140Q enzyme detection: 25 μL of an IDH2^R140Q enzyme solution was added, and the mixture was incubated for 60 minutes; then 25 μL of a substrate solution was added, and the mixture was incubated for 150 minutes; then 25 μL of a detection buffer was added, and the mixture was shaken for 1 minute and incubated for 60 minutes; and finally, Synergy 2, Ex544/Em590 cutoff 590 was used for reading. • (5) IDH1^R132H enzyme detection: 40 μL of a mixture solution of an IDH1^R132H enzyme at the 1.25-fold final concentration and NADPH was added, and the mixture was incubated for 60 minutes; then 10 μL of a substrate solution at the 5-fold final concentration was added, and the mixture was incubated for 90 minutes; then 25 μL of a detection buffer at the 3-fold final concentration was added, and the mixture was shaken for 1 minute. and finally, Synergy 2, Ex544/Em590 cutoff 590 was used for reading. • (8) Inhibition rate calculation, formula: % Inhibition=(RFU_sample−RFU_min)/(RFU_max−RFU_min)*100%, wherein RFU-sample represents the fluorescence intensity of a sample; RFU-min represents the average value of negative control wells and represents the fluorescence intensity with an enzyme; and RFU-max represents the average value of positive control wells and represents the fluorescence intensity without an enzyme. The curve fitting was performed using Graphpad Prism software to obtain IC50 values, and the test results were as shown in table 2.

IDH1^R132H [2] = target: T1, IDH1^R132H; assay: 2-HG assay in cells (U87 cell line stably transfected with IDH1-R132H); type: cell-based; settings: 72 hours, read-out: 2-HG in medium (IC50, nM) (IDH1^R132H)
Description: The compounds were detected for the inhibition of 2-HG production in the U87 cell line stably transfected with IDH1-R132H and the culture supernatant of TF-1 cells stably transfected with IDH2-R140Q. • (1) The cultured cells were collected by centrifugation, then suspended in a cell culture solution, counted, and seeded in a 96-well cell culture plate at 160 μL of cell suspension/well (20000 cells/well for U87-IDH1-R132H; 10000 cells/well for TF-1-IDH2-R140Q). • (2) A 96-well plate dilution was taken, and the compounds to be tested were diluted in a gradient manner in DMSO and a cell culture solution; and then 40 μL of the gradient-diluted compounds to be tested were added to the 96-well plate on which cells have been plated. […] Finally, the plate was cultured in a 37° C. incubator containing 5% CO2. • (3) After the compounds were incubated with the cells for 72 hours, the cell culture plate was taken out and centrifuged at 1500 rpm for 5 minutes, and then 100 μL of the medium supernatant was aspirated for 2-HG detection. • (4) 2-HG detection: the cell supernatant was diluted with purified water, 30 μL of the diluted sample was taken into a 1.5 ml centrifuge tube, and 200 μL of the internal standard solution was added. The mixture was mixed uniformly by vortex and centrifuged at 3200 rpm at 4° C. for 15 minutes. 100 μL of the supernatant solution was diluted with water at a 1:1 ratio and then detected by LC-MS. Analyte Peak Area was used to represent the 2-HG levels. • (5) Inhibition rate calculation, formula: % Inhibition=(1−Analyte Peak Area_sample/Analyte Peak Area_max)*100%, wherein Analyte Peak Area_sample represents the Analyte Peak Area of the sample to which the compound was added; Analyte Peak Area_max represents the average value of Analyte Peak Area of positive control wells (representing the absence of the compound). The curve fitting was performed using Graphpad Prism software to obtain IC50 values, and the test results were as shown in table 2.

T1 sequence (O75874 whole entry R132H): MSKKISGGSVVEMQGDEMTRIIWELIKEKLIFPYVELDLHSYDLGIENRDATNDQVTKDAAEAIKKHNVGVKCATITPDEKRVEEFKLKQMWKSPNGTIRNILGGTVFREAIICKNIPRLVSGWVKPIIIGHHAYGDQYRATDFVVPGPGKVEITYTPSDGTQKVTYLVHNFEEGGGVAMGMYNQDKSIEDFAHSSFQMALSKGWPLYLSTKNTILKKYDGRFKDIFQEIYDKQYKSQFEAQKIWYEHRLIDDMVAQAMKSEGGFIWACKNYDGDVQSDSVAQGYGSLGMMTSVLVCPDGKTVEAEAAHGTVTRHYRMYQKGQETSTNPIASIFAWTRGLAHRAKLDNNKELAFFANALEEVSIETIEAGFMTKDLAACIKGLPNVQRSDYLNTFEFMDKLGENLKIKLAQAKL

Compound	IC50 (IDH1^R132H [1]; numeric values)	IC50 (IDH1^R132H [2]; numeric values)	IC50 (IDH1^R132H [1]; class symbols)	IC50 (IDH1^R132H [2]; class symbols)
C[C@@H](Nc1nc(N[C@H](C)C(F)(F)F)nc(-c2ccc(N)c(Cl)n2)n1)C(F)(F)F [Example 2]	22 nM	17 nM	–	–
COc1cc(-c2nc(N[C@H](C)C(F)(F)F)nc(N[C@H](C)C(F)(F)F)n2)nc(Cl)c1N [Example 3, 6-(5-amino-6-chloro-4-methoxypyridin-2-yl)-N^2,N^4-bis((R)-1,1,1-trifluoroprop-2-yl)-1,3,5-triazine-2,4-diamine]	–	–	> 1000 nM	> 1000 nM
C[C@@H](Nc1nc(N[C@H](C)C(F)(F)F)nc(-c2nc(Cl)c(N)cc2F)n1)C(F)(F)F [Example 4, 6-(5-amino-6-chloro-3-fluoropyridin-2-yl)-N^2,N^4-bis((R)-1,1,1-trifluoroprop-2-yl)-1,3,5-triazine-2,4-diamine]	–	–	> 1000 nM	> 1000 nM
C[C@@H](Nc1nc(N[C@H](C)C(F)(F)F)nc(-c2cc(Br)c(N)c(Cl)n2)n1)C(F)(F)F [Example 6, 6-(5-amino-4-bromo-6-chloropyridin-2-yl)-N^2,N^4-bis((R)-1,1,1-trifluoropropyl-2-yl)-1,3,5-triazine-2,4-diamine]	–	–	100 to 1000 nM	50 to 100 nM
C=Cc1cc(-c2nc(N[C@H](C)C(F)(F)F)nc(N[C@H](C)C(F)(F)F)n2)nc(Cl)c1N [Example 9, 6-(5-amino-6-chloro-4-vinylpyridin-2-yl)-N^2,N^4-bis((R)-1,1,1-trifluoropropyl-2-yl)-1,3,5-triazine-2,4-diamine]	–	–	> 1000 nM	> 1000 nM
C[C@@H](Nc1nc(N[C@H](C)C(F)(F)F)nc(-c2cc(F)c(O)c(Cl)n2)n1)C(F)(F)F [Example 10, 6-(4,6-bis(((R)-1,1,1-trifluoroprop-2-yl)amine)-1,3,5-triazin-2-yl)-2-chloro-4-fluoropyridin-3-ol]	–	–	> 1000 nM	100 to 1000 nM
C[C@@H](Nc1nc(N[C@H](C)C2CC2)nc(-c2cc(F)c(N)c(Cl)n2)n1)C1CC1 [Example 11, 6-(5-amino-6-chloro-4-fluoropyridin-2-yl)-N^2,N^4-bis((R)-1-cyclopropylethyl)-1,3,5-triazine-2,4-diamine]	–	–	> 1000 nM	100 to 1000 nM

Other lines, results leading:

IC50 (IDH1^R132H [1]; numeric values)	IC50 (IDH1^R132H [2]; numeric values)	IC50 (IDH1^R132H [1]; class symbols)	IC50 (IDH1^R132H [2]; class symbols)	Compound
–	–	≤ 50 nM	≤ 50 nM	Nc1c(F)cc(-c2nc(NC3CC(F)(F)C3)nc(NC3CC(F)(F)C3)n2)nc1Cl [Example 12, 6-(5-amino-6-chloro-4-fluoropyridin-2-yl)-N^2,N^4-bis(3,3-difluorocyclobutyl)-1,3,5-triazine-2,4-diamine]
–	–	> 1000 nM	100 to 1000 nM	C[C@@H](Nc1nc(N[C@H](C)C(F)(F)F)nc(-c2cc(F)c(N)c(C(F)(F)F)n2)n1)C(F)(F)F [Example 13, 6-(5-amino-4-fluoro-6-(trifluoromethyl)pyridin-2-yl)-N^2,N^4-bis((R)-1,1,1-trifluoroprop-2-yl)-1,3,5-triazine-2,4-diamine]
–	–	≤ 50 nM	≤ 50 nM	C[C@@H](Nc1nc(N[C@H](C)C(F)(F)F)nc(-c2cc(F)c(Cl)c(Cl)n2)n1)C(F)(F)F [Example 17, 6-(5,6-dichloro-4-fluoropyridin-2-yl)-N^2,N^4-bis((R)-1,1,1-trifluoroprop-2-yl)-1,3,5-triazine-2,4-diamine]
–	–	> 1000 nM	–	CNc1c(Cl)cc(-c2nc(N[C@H](C)C(F)(F)F)nc(N[C@H](C)C(F)(F)F)n2)nc1Cl [Example 20, 6-(4,6-dichloro-5-methylaminopyridin-2-yl)-N^2,N^4-bis((R)-1,1,1-trifluoroprop-2-yl)-1,3,5-triazine-2,4-diamine]
–	–	100 to 1000 nM	–	C[C@@H](Nc1nc(N[C@H](C)C(F)(F)F)nc(-c2cc(Cl)c(N(C)C)c(Cl)n2)n1)C(F)(F)F [Example 21, 6-(4,6-dichloro-5-dimethylaminopyridin-2-yl)-N^2,N^4-bis((R)-1,1,1-trifluoroprop-2-yl)-1,3,5-triazine-2,4-diamine]
–	–	> 1000 nM	–	C[C@@H](Nc1nc(N[C@H](C)C(F)(F)F)nc(-c2cc(OC(F)F)c(N)c(Cl)n2)n1)C(F)(F)F [Example 22, 6-(5-amino-6-chloro-4-(difluoromethoxy)pyridin-2-yl)-N^2,N^4-bis((R)-1,1,1-trifluoropropyl-2-yl)-1,3,5-triazine-2,4-diamine]
–	–	100 to 1000 nM	100 to 1000 nM	C[C@@H](Nc1nc(N[C@H](C)C(F)(F)F)nc(-c2cc(C(F)(F)F)c(N)c(Cl)n2)n1)C(F)(F)F [Example 25, 6-(6-chloro-5-amino-4-(trifluoromethyl)pyridin-2-yl)-N^2,N^4-bis((R)-1,1,1-trifluoropropyl-2-yl)-1,3,5-triazine-2,4-diamine]

From US20250051301A1, “MUTANT IDH1 AND IDH2 INHIBITOR AND APPLICATION THEREOF” (Betta Pharmaceuticals Co., Ltd, priority 2022, published 2025)
